Assay results as given in the supplement of paper PMC10307832.

Assays:
Experiment in all cases: relative viability (nuclei count vs DMSO), 5 days (fraction); higher = more cells survive
[1] = compound: CN1CCN(c2ccc3nc(-c4c(N)c5c(F)cccc5[nH]c4=O)[nH]c3c2)CC1 [Dovitinib] + CC(=O)c1c(C)c2cnc(Nc3ccc(N4CCNCC4)cn3)nc2n(C2CCCC2)c1=O [Palbociclib] (partner 0.5 µM)
Outline: (§1)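 Relative viability was taken as the ratio of nuclei in treated wells to nuclei in vehicle wells. Lung cancer cell lines in 1536-well plates received compounds by pin tool one day after seeding, either one drug alone or a fixed anchor-drug dose plus five library-drug doses (not always all listed) in √10 steps. Nuclei were counted on 4× images after 5 days of treatment, and values are medians of duplicate plates.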

[2] = compound: CN1CCN(c2ccc3nc(-c4c(N)c5c(F)cccc5[nH]c4=O)[nH]c3c2)CC1 [Dovitinib] + Cc1nc(Nc2ncc(C(=O)Nc3c(C)cccc3Cl)s2)cc(N2CCN(CCO)CC2)n1 [Dasatinib] (partner 0.075 µM)
Outline: as §1

[3] = compound: CN1CCN(c2ccc3nc(-c4c(N)c5c(F)cccc5[nH]c4=O)[nH]c3c2)CC1 [Dovitinib] + CC(C)C[C@H](NC(=O)[C@H](Cc1ccccc1)NC(=O)c1cnccn1)B(O)O [Bortezomib] (partner 0.002 µM)
Outline: as §1

[4] = compound: CN1CCN(c2ccc3nc(-c4c(N)c5c(F)cccc5[nH]c4=O)[nH]c3c2)CC1 [Dovitinib] + CCNC(=O)c1noc(-c2cc(C(C)C)c(O)cc2O)c1-c1ccc(CN2CCOCC2)cc1 [Luminespib] (partner 0.01 µM)
Outline: as §1

| Cell Line | relative viability ([1]; first compound 0.02 µM) | relative viability ([1]; first compound 0.06325 µM) | relative viability ([1]; first compound 0.2 µM) | relative viability ([1]; first compound 0.6325 µM) | relative viability ([1]; first compound 2 µM) | relative viability ([2]; first compound 0.02 µM) | relative viability ([2]; first compound 0.06325 µM) | relative viability ([2]; first compound 0.2 µM) | relative viability ([2]; first compound 0.6325 µM) | relative viability ([2]; first compound 2 µM) | relative viability ([3]; first compound 0.02 µM) | relative viability ([3]; first compound 0.06325 µM) | relative viability ([3]; first compound 0.2 µM) | relative viability ([3]; first compound 0.6325 µM) | relative viability ([3]; first compound 2 µM) | relative viability ([4]; first compound 0.02 µM) | relative viability ([4]; first compound 0.06325 µM) | relative viability ([4]; first compound 0.2 µM) | relative viability ([4]; first compound 0.6325 µM) | relative viability ([4]; first compound 2 µM) |
| --- | --- | --- | --- | --- | --- | --- | --- | --- | --- | --- | --- | --- | --- | --- | --- | --- | --- | --- | --- | --- |
| HCC-78 | 0.437 | 0.468 | 0.511 | 0.54 | 0.522 | 0.426 | 0.328 | 0.392 | 0.453 | 0.357 | 0.636 | 0.486 | 0.531 | 0.567 | 0.355 | – | – | – | – | – |
| NCI-H2085 | 0.481 | 0.476 | 0.477 | 0.415 | 0.493 | 0.234 | 0.261 | 0.235 | 0.248 | 0.319 | 1.05 | 1.1 | 1.03 | 1.21 | 1.06 | 0.41 | 0.457 | 0.485 | 0.495 | 0.484 |
| PC-14 | 0.461 | 0.622 | 0.572 | 0.467 | 0.537 | 0.257 | 0.273 | 0.238 | 0.3 | 0.331 | 0.796 | 0.906 | 0.834 | 0.808 | 0.819 | 0.147 | 0.158 | 0.15 | 0.17 | 0.16 |
| NCI-H2342 | 0.621 | 0.517 | 0.553 | 0.621 | 0.537 | 0.339 | 0.324 | 0.337 | 0.298 | 0.318 | – | – | – | – | – | 0.675 | 0.711 | 0.741 | 0.692 | 0.579 |
| A-427 | 0.502 | 0.517 | 0.553 | 0.521 | 0.587 | 0.624 | 0.654 | 0.673 | 0.634 | 0.698 | 0.87 | 0.909 | 0.953 | 0.93 | 1.03 | 0.843 | 1.02 | 1.14 | 0.897 | 0.747 |
| H3255 | 0.301 | 0.291 | 0.298 | 0.325 | 0.281 | 0.405 | 0.374 | 0.424 | 0.445 | 0.369 | 0.773 | 0.642 | 0.804 | 0.739 | 0.788 | 0.943 | 0.9 | 0.956 | 0.932 | 0.923 |
| HCC-44 | 0.93 | 0.994 | 0.969 | 0.985 | 0.95 | – | – | – | – | – | 0.822 | 0.836 | 0.867 | 0.894 | 0.916 | 0.981 | 0.976 | 1.12 | 1.11 | 1.02 |
| NCI-H1734 | 0.371 | 0.387 | 0.355 | 0.338 | 0.416 | 0.431 | 0.501 | 0.436 | 0.439 | 0.452 | 0.845 | 0.941 | 0.933 | 0.948 | 0.87 | 0.177 | 0.231 | 0.185 | 0.182 | 0.198 |
| NCI-H2228 | 0.763 | 0.815 | 0.696 | 0.79 | 0.678 | 0.549 | 0.624 | 0.495 | 0.435 | 0.588 | 0.845 | 0.952 | 0.827 | 0.897 | 0.875 | 0.104 | 0.151 | 0.161 | 0.141 | 0.172 |
| ABC-1 | 0.513 | 0.797 | 0.833 | 0.627 | 0.725 | 0.479 | 0.55 | 0.474 | 0.618 | 0.61 | 0.262 | 0.34 | 0.306 | 0.323 | 0.315 | – | 0.522 | 0.326 | 0.783 | 0.659 |
| COR-L23 | 0.269 | 0.261 | 0.306 | 0.372 | 0.324 | 0.482 | 0.565 | 0.512 | 0.534 | 0.567 | 0.82 | 1.03 | 1.06 | 1.16 | 1.16 | 0.581 | 0.788 | 0.695 | 0.664 | 0.72 |
| NCI-H358 | 0.153 | 0.141 | 0.118 | 0.135 | 0.135 | 0.154 | 0.177 | 0.176 | 0.184 | 0.179 | – | – | – | – | – | 0.31 | 0.306 | 0.428 | 0.813 | 0.306 |
| EBC-1 | – | – | – | – | – | – | – | – | – | – | 0.543 | 0.488 | 0.571 | 0.564 | 0.587 | – | – | – | – | – |
| NCI-H596 | – | – | – | – | – | 0.646 | 0.523 | 0.552 | 0.647 | 0.534 | 1.19 | 1.03 | 0.834 | 1.04 | 1.07 | 1.12 | 1.11 | 0.942 | 1.16 | 0.835 |
| SK-MES-1 | 0.35 | 0.378 | 0.306 | 0.37 | 0.374 | 0.349 | 0.426 | 0.417 | 0.414 | 0.477 | – | – | – | – | – | 0.653 | 0.949 | 0.785 | 0.661 | 0.887 |
| NCI-H1703 | – | – | – | – | – | – | – | – | – | – | 0.47 | 0.335 | 0.18 | 0.328 | 0.291 | – | – | – | – | – |
| NCI-H1944 | 0.305 | 0.356 | 0.323 | 0.346 | 0.308 | 0.214 | 0.21 | 0.208 | 0.212 | 0.228 | – | – | – | – | – | 0.643 | 0.773 | 0.757 | 0.704 | 0.715 |
| NCI-H1563 | – | – | – | – | – | 0.478 | 0.475 | 0.469 | 0.507 | 0.509 | 0.962 | 0.879 | 0.977 | 0.938 | 0.908 | 0.567 | 0.481 | 0.615 | 0.509 | 0.543 |
| NCI-H1395 | 0.608 | 0.575 | 0.661 | 0.605 | 0.652 | 0.448 | 0.423 | 0.437 | 0.402 | 0.425 | – | – | – | – | – | 0.703 | 0.661 | 0.757 | 0.629 | 0.665 |
| NCI-H2170 | 0.419 | 0.448 | 0.399 | 0.39 | 0.407 | 0.552 | 0.566 | 0.608 | 0.599 | 0.552 | – | – | – | – | – | 0.892 | 0.79 | 0.857 | 0.538 | 0.652 |
